The nature of series [1]: PAMPA, blood–brain barrier mimic. Format: in vitro ADME. Particulars: 500 μM, 37 °C, 22 h. The text has this:
In neurodegenerative diseases, proteins prone to aggregation accumulate in the neuronal cells. Therefore, a necessary feature of potential drugs is not only permeability across the cell membrane but also the ability to cross the blood-brain barrier (BBB). To preliminarily investigate this feature, we performed parallel artificial membrane permeation assays (PAMPA) including as positive controls propranolol and Tat47-57, known for their ability to penetrate the blood-brain barrier. Dopamine hydrobromide was included as a negative control. For comparison, we also tested compound 1a, which is devoid of a CPP sequence. […] The PAMPA was performed as previously described.[21] Briefly, a 2% solution of porcine brain lipid membrane (PBL; Avanti Polar Lipids Inc., Alabaster, AL, USA) in anhydrous dodecane was used as a mimic of the blood-brain barrier. Propranolol hydrochloride (Merck, Darmstadt, Germany) and Tat47-57 (synthesized in-house) served as positive controls, while dopamine hydrobromide (Merck, Darmstadt, Germany) was used as a negative control. Stock solutions of the tested compounds and controls were prepared at a concentration of 10 mM in deionized water and then diluted to 500 μM using 0.1 M PBS containing 5% DMSO. The donor-acceptor plate assembly was incubated at 37 °C while being shaken at 250 rpm for 22 h. Absorbance at 290 nm was measured for propranolol using an Infinite […] plate reader (Infinite […] plate reader, Tecan). For the other samples, fluorescence measurements were performed after the compounds were reacted with 0.02% fluorescamine. The rate of passive diffusion was calculated as the linear velocity of permeation (Pe). The data represent an average of three independent biological replicates.
On the technique in general: The PAMPA barrier holds no transporters, so it reflects passive diffusion.

Series [2] has as its system endogenous α-synuclein in primary cortical cultures. In words: Endogenous α-synuclein level in primary cortical cultures (Simple Western Jess). In kind it is cell-based, mouse. The conditions noted are these: 2.5 μM, 7 days; statistical significance only for 1g. How it is done:
The effectiveness of the compounds has also been examined by using proteins as substrates. By means of SDS-PAGE electrophoresis, we checked the extent to which model proteins were digested by the 20S proteasome alone and after its stimulation by 10 μM modulators. […] After incubation with the enzyme in the presence of each modulator, less than 40% of synuclein remained. […] All animal experiments were performed following the protocols evaluated and approved by the Laboratory Animal Centre of the University of Helsinki (Ethics Approval License KEK24-013) and in accordance with the European Community Guidelines (Directive 2010/63/EU). […] The viability and number of neuronal cells were calculated automatically in an Automated Cell Counter (Bio-Rad), plated at a density of 1,000,000 cells per well on 6-well plates and cultured in Neurobasal A Medium (Thermo Fisher Scientific (Gibco), #12349015, Waltham, MA, USA) supplemented with GlutaMAX (Thermo Fisher Scientific (Gibco) #A1286001, Waltham, MA, USA), B-27 Supplement (Thermo Fisher Scientific (Gibco), #17504001, Waltham, MA, USA), and 200 ng/mL Primocin (Invitrogen, ant-pm-1, San Diego, CA, USA). […] Protein concentrations in the cell lysates were determined using a bicinchoninic acid (BCA) assay (Sigma-Aldrich, 3B9643-1L-KC, MO, USA) according to the manufacturer’s instructions. […]

The subject of series [3] is hippocampal neurons containing Lewy body-like pS129-αsyn aggregates. In words: pS129-α-synuclein aggregates in PFF-treated hippocampal neurons. In kind it is cell-based, mouse. Particulars: 7 days after PFFs, 0.5 and 2.5 μM. The text has this: Encouraged by the results received, we tested the ability of the modulator-CPP constructs to increase α-synuclein degradation in a cell model using primary mouse neuronal cells. The presence of Lewy-like neurites and Lewy-like bodies containing aggregated α-synuclein with phosphorylated serine 129 (pS129-αsyn) is a characteristic feature of the brains of people with Parkinson’s disease. To mimic these aggregations, we introduced a solution of preformed fibrils (PFFs) to the media of neuronal cells, which led to the induction of α-synuclein phosphorylation and its aggregation in neurons isolated from mouse embryos. PFFs are purified, prion-like fibrils of α-synuclein that are produced by expressing a recombinant monomeric protein in bacteria. Seven days after PFFs are introduced to the cells, large aggregates are visible in the cell soma, often next to the cell nucleus. We added the PFF solution to the hippocampal cells, and after an hour of incubation, we introduced solutions of the activator. After 7 days, we immunostained neuronal cells using a monoclonal antibody against the NeuN protein, which is commonly used in neuronal differentiation studies to assess their functional status. Additionally, we stained the nuclei of all incubated cells with DAPI. […] It is noteworthy that the number of cells in samples with activators was slightly higher (Figure 5), which may indicate neuroprotective properties. […] The main tool for monitoring this process was an antibody against pS129-αsyn. […] The fluorescent microscopy images (Figure 5) show the difference between the amounts of aggregated protein in the control sample and in the samples containing activators at different concentrations.
Cells were isolated from pregnant mouse embryos at E16.0 and plated on precoated with poly-L-lysine wells of 96-well plates (PerkinElmer/Revvity Inc., Waltham, MA, USA) at 25,000 cells/well. The final medium volume was 150 μL/well. Cells were incubated at 37 °C, 5% CO2. […]

Structures are written as SMILES. “Also recorded” adds a separate entry of the source.

Turning to `C[C@@H](O)[C@H](NC(=O)[C@H](Cc1ccccc1)NC(=O)[C@H](Cc1ccc(O)cc1)NC(=O)CN(CCCCN)C(=O)[C@H](CCCNC(=N)N)NC(=O)[C@H](CCCNC(=N)N)NC(=O)[C@H](CCCNC(=N)N)NC(=O)[C@H](CCNC(=N)N)NC(=O)[C@H](CCCNC(=N)N)NC(=O)[C@@H](N)CCCNC(=N)N)C(=O)NCC(=O)N[C@@H](CO)C(=O)N[C@@H](CCCCN)C(=O)N[C@@H](CC(=O)O)C(=O)N[C@@H](Cc1c[nH]c2ccccc12)C(=O)N[C@@H](CCCNC(=N)N)C(=O)N[C@@H](CO)C(=O)N[C@@H](Cc1ccc(O)cc1)C(=O)N[C@@H](Cc1ccc(O)cc1)C(=O)N[C@@H](CO)C(=O)O` [1g], the “permeability across artificial BBB membrane, PAMPA” value in series [1] was “had the ability to penetrate the artificial membrane mimicking the BBB”. In addition, the “effect on endogenous α-synuclein in primary cortical cultures” value in series [2] was “able to reduce the amount of endogenous α-synuclein”. Also, the “effect on hippocampal cells containing α-synuclein aggregates” value in series [3] was “effectively reduced the number of hippocampal cells containing α-synuclein; also recorded: visible dependence of the degradation ability on concentration”.

The values above are taken from paper PMC12035797, “Peptidomimetics Activating the Proteasome: A New Perspective for Parkinson’s Treatment” (Journal of Medicinal Chemistry, 2025).
